Data: the supplement of paper PMC11451515

Assays:
Details in all cases: 48 h
SEM cells [1] = assay: AUC of viability dose-response curve (% viability x log10 dose units); higher = less sensitive
Procedure, shortened: (§1)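 Leukemia cells adapted to each medium were seeded in 1536-well plates (500 or 1000 cells/well). They were dosed with library compounds in DMSO at 11 threefold doses, 47 μM to 0.79 nM, for 48 h at 37°C. CellTiter-Glo One luminescence was normalised per plate to DMSO and cell-free wells. Area under the curve was integrated by trapezoidal rule over log10 doses on a four-parameter log-logistic fit; curves exceeding full viability were scaled and curves failing quality control removed.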

P12-Ichikawa [2] = assay: as above
Procedure, shortened: as §1

NOMO1 [3] = assay: as above
Procedure, shortened: as §1

SEM cells [4] = assay: cell viability relative to DMSO control; higher = less cytotoxic
Procedure, shortened: (§2)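 Library compounds in DMSO were pin-dosed into 1536-well plates (5 μl) holding NOMO1 or SEM (500 cells/well) or P12-Ichikawa (1000 cells/well) leukemia cells, across an 11-point threefold series of 47 μM to 0.79 nM. Each cell line had been adapted for at least four passages in each medium. CellTiter-Glo One luminescence was read after 48 h at 37°C. Viability is the per-plate percentage relative to DMSO wells, with cell-free wells as background.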

P12-Ichikawa [5] = assay: as above
Procedure, shortened: as §2

NOMO1 [6] = assay: as above
Procedure, shortened: as §2

[7] = RPMI 5 mM glucose + 10% dialyzed FBS
[8] = HPLM + 10% dialyzed FBS, 0.000781 µM
[9] = HPLM + 10% dialyzed FBS, 0.00234 µM
[10] = HPLM + 10% dialyzed FBS, 0.00702 µM
[11] = HPLM + 10% dialyzed FBS, 0.0211 µM
[12] = HPLM + 10% dialyzed FBS, 0.0632 µM
[13] = HPLM + 10% dialyzed FBS, 0.19 µM
[14] = HPLM + 10% dialyzed FBS, 0.569 µM
[15] = HPLM + 10% dialyzed FBS, 1.71 µM
[16] = HPLM + 10% dialyzed FBS, 5.12 µM
[17] = HPLM + 10% dialyzed FBS, 15.4 µM
[18] = HPLM + 10% dialyzed FBS, 46.1 µM
[19] = RPMI 5 mM glucose + 10% FBS, 0.000781 µM
[20] = RPMI 5 mM glucose + 10% FBS, 0.00234 µM
[21] = RPMI 5 mM glucose + 10% FBS, 0.00702 µM
[22] = RPMI 5 mM glucose + 10% FBS, 0.0211 µM
[23] = RPMI 5 mM glucose + 10% FBS, 0.0632 µM
[24] = RPMI 5 mM glucose + 10% FBS, 0.19 µM
[25] = RPMI 5 mM glucose + 10% FBS, 0.569 µM
[26] = RPMI 5 mM glucose + 10% FBS, 1.71 µM
[27] = RPMI 5 mM glucose + 10% FBS, 5.12 µM
[28] = RPMI 5 mM glucose + 10% FBS, 15.4 µM
[29] = RPMI 5 mM glucose + 10% FBS, 46.1 µM
[30] = RPMI 5 mM glucose + 10% dialyzed FBS, 0.000781 µM
[31] = RPMI 5 mM glucose + 10% dialyzed FBS, 0.00234 µM
[32] = RPMI 5 mM glucose + 10% dialyzed FBS, 0.00702 µM
[33] = RPMI 5 mM glucose + 10% dialyzed FBS, 0.0211 µM
[34] = RPMI 5 mM glucose + 10% dialyzed FBS, 0.0632 µM
[35] = RPMI 5 mM glucose + 10% dialyzed FBS, 0.19 µM
[36] = RPMI 5 mM glucose + 10% dialyzed FBS, 0.569 µM
[37] = RPMI 5 mM glucose + 10% dialyzed FBS, 1.71 µM
[38] = RPMI 5 mM glucose + 10% dialyzed FBS, 5.12 µM
[39] = RPMI 5 mM glucose + 10% dialyzed FBS, 15.4 µM
[40] = RPMI 5 mM glucose + 10% dialyzed FBS, 46.1 µM

`CO[C@@H]1[C@H](N(C)C(=O)c2ccccc2)C[C@H]2O[C@]1(C)n1c3ccccc3c3c4c(c5c6ccccc6n2c5c31)C(=O)NC4` was tested, and the “AUC of viability dose-response curve” value (SEM cells [1]; HPLM + 10% dialyzed FBS) was 313, the “AUC of viability dose-response curve” value (SEM cells [1]; RPMI 5 mM glucose + 10% FBS) was 308 and the “AUC of viability dose-response curve” value (SEM cells [1]; [7]) was 305. For the same compound, the “AUC of viability dose-response curve” value (P12-Ichikawa [2]; HPLM + 10% dialyzed FBS) was 373, the “AUC of viability dose-response curve” value (P12-Ichikawa [2]; RPMI 5 mM glucose + 10% FBS) was 380 and the “AUC of viability dose-response curve” value (P12-Ichikawa [2]; [7]) was 386. For the same compound, the “AUC of viability dose-response curve” value (NOMO1 [3]; HPLM + 10% dialyzed FBS) was 415, the “AUC of viability dose-response curve” value (NOMO1 [3]; RPMI 5 mM glucose + 10% FBS) was 424 and the “AUC of viability dose-response curve” value (NOMO1 [3]; [7]) was 412. For the same compound, the cell viability (SEM cells [4]; [8]) was 103%, the cell viability (SEM cells [4]; [9]) was 104% and the cell viability (SEM cells [4]; [10]) was 119%. The cell viability (SEM cells [4]; [11]) was 97%, the cell viability (SEM cells [4]; [12]) was 114% and the cell viability (SEM cells [4]; [13]) was 105%. It also gave a cell viability (SEM cells [4]; [14]) of 55.5%, a cell viability (SEM cells [4]; [15]) of 37.6% and a cell viability (SEM cells [4]; [16]) of 20.7%. It also gave a cell viability (SEM cells [4]; [17]) of 12.7%, a cell viability (SEM cells [4]; [18]) of 7% and a cell viability (SEM cells [4]; [19]) of 87%. For the same compound, the cell viability (SEM cells [4]; [20]) was 111%, the cell viability (SEM cells [4]; [21]) was 110% and the cell viability (SEM cells [4]; [22]) was 106%. For the same compound, the cell viability (SEM cells [4]; [23]) was 105%, the cell viability (SEM cells [4]; [24]) was 92.4% and the cell viability (SEM cells [4]; [25]) was 64.2%. The cell viability (SEM cells [4]; [26]) was 30.3%, the cell viability (SEM cells [4]; [27]) was 10.9% and the cell viability (SEM cells [4]; [28]) was 6.27%. It also gave a cell viability (SEM cells [4]; [29]) of 4.63%, a cell viability (SEM cells [4]; [30]) of 101% and a cell viability (SEM cells [4]; [31]) of 108%. The cell viability (SEM cells [4]; [32]) was 109%, the cell viability (SEM cells [4]; [33]) was 97% and the cell viability (SEM cells [4]; [34]) was 107%. For the same compound, the cell viability (SEM cells [4]; [35]) was 85.5%, the cell viability (SEM cells [4]; [36]) was 63% and the cell viability (SEM cells [4]; [37]) was 34.7%. For the same compound, the cell viability (SEM cells [4]; [38]) was 11.8%, the cell viability (SEM cells [4]; [39]) was 7.3% and the cell viability (SEM cells [4]; [40]) was 4.43%. For the same compound, the cell viability (P12-Ichikawa [5]; [8]) was 113%, the cell viability (P12-Ichikawa [5]; [9]) was 111% and the cell viability (P12-Ichikawa [5]; [10]) was 113%. The cell viability (P12-Ichikawa [5]; [11]) was 112%, the cell viability (P12-Ichikawa [5]; [12]) was 121% and the cell viability (P12-Ichikawa [5]; [13]) was 122%. It also gave a cell viability (P12-Ichikawa [5]; [14]) of 122%, a cell viability (P12-Ichikawa [5]; [15]) of 109% and a cell viability (P12-Ichikawa [5]; [16]) of 17.9%. The cell viability (P12-Ichikawa [5]; [17]) was 15%, the cell viability (P12-Ichikawa [5]; [18]) was 18.9% and the cell viability (P12-Ichikawa [5]; [19]) was 112%. The cell viability (P12-Ichikawa [5]; [20]) was 110%, the cell viability (P12-Ichikawa [5]; [21]) was 111% and the cell viability (P12-Ichikawa [5]; [22]) was 117%. The cell viability (P12-Ichikawa [5]; [23]) was 119%, the cell viability (P12-Ichikawa [5]; [24]) was 122% and the cell viability (P12-Ichikawa [5]; [25]) was 124%. For the same compound, the cell viability (P12-Ichikawa [5]; [26]) was 106%, the cell viability (P12-Ichikawa [5]; [27]) was 24.4% and the cell viability (P12-Ichikawa [5]; [28]) was 28.8%. For the same compound, the cell viability (P12-Ichikawa [5]; [29]) was 24.4%, the cell viability (P12-Ichikawa [5]; [30]) was 111% and the cell viability (P12-Ichikawa [5]; [31]) was 125%. The cell viability (P12-Ichikawa [5]; [32]) was 117%, the cell viability (P12-Ichikawa [5]; [33]) was 116% and the cell viability (P12-Ichikawa [5]; [34]) was 123%. The cell viability (P12-Ichikawa [5]; [35]) was 140%, the cell viability (P12-Ichikawa [5]; [36]) was 126% and the cell viability (P12-Ichikawa [5]; [37]) was 111%. The cell viability (P12-Ichikawa [5]; [38]) was 35.7%, the cell viability (P12-Ichikawa [5]; [39]) was 33.1% and the cell viability (P12-Ichikawa [5]; [40]) was 30.2%. It also gave a cell viability (NOMO1 [6]; [8]) of 103%, a cell viability (NOMO1 [6]; [9]) of 104% and a cell viability (NOMO1 [6]; [10]) of 128%. It also gave a cell viability (NOMO1 [6]; [11]) of 116%, a cell viability (NOMO1 [6]; [12]) of 153% and a cell viability (NOMO1 [6]; [13]) of 134%. The cell viability (NOMO1 [6]; [14]) was 135%, the cell viability (NOMO1 [6]; [15]) was 114% and the cell viability (NOMO1 [6]; [16]) was 80%. The cell viability (NOMO1 [6]; [17]) was 54.5%, the cell viability (NOMO1 [6]; [18]) was 49.5% and the cell viability (NOMO1 [6]; [19]) was 96.7%. For the same compound, the cell viability (NOMO1 [6]; [20]) was 116%, the cell viability (NOMO1 [6]; [21]) was 107% and the cell viability (NOMO1 [6]; [22]) was 114%. The cell viability (NOMO1 [6]; [23]) was 121%, the cell viability (NOMO1 [6]; [24]) was 115% and the cell viability (NOMO1 [6]; [25]) was 118%. It also gave a cell viability (NOMO1 [6]; [26]) of 105%, a cell viability (NOMO1 [6]; [27]) of 87.1% and a cell viability (NOMO1 [6]; [28]) of 50.9%. The cell viability (NOMO1 [6]; [29]) was 44.3%, the cell viability (NOMO1 [6]; [30]) was 117% and the cell viability (NOMO1 [6]; [31]) was 113%. For the same compound, the cell viability (NOMO1 [6]; [32]) was 123%, the cell viability (NOMO1 [6]; [33]) was 111% and the cell viability (NOMO1 [6]; [34]) was 110%. The cell viability (NOMO1 [6]; [35]) was 105%, the cell viability (NOMO1 [6]; [36]) was 114% and the cell viability (NOMO1 [6]; [37]) was 93.2%. It also gave a cell viability (NOMO1 [6]; [38]) of 80.3%, a cell viability (NOMO1 [6]; [39]) of 50.8% and a cell viability (NOMO1 [6]; [40]) of 49.5%.
